According to patent US10085983B2, “Azabicyclo derivatives, process for preparation thereof and medical use thereof” (Shanghai Haiyan Pharmaceutical Technology Co., Ltd., priority 2014, dated 2018):

Assays:
[1] = Stability of compound CC0922; format: physicochemical
[2] = biological target: T790M/L858R double mutant EGFR kinase (Homo sapiens (Human), UniProt P00533, L858R/T790M); test: z'-lyte assay of inhibitory activity on T790M/L858R double mutant EGFR kinase; format: biochemical; conditions: for Selective inhibitory activity against enzymes [IC50 (EGFR WT)/IC50 (T790M/L858R)]: ratio of enzyme IC50 values; for IC50: z'-lyte assay, 25 μM ATP
Sequence of T790M/L858R double mutant EGFR kinase (P00533 25-1210 T790M/L858R): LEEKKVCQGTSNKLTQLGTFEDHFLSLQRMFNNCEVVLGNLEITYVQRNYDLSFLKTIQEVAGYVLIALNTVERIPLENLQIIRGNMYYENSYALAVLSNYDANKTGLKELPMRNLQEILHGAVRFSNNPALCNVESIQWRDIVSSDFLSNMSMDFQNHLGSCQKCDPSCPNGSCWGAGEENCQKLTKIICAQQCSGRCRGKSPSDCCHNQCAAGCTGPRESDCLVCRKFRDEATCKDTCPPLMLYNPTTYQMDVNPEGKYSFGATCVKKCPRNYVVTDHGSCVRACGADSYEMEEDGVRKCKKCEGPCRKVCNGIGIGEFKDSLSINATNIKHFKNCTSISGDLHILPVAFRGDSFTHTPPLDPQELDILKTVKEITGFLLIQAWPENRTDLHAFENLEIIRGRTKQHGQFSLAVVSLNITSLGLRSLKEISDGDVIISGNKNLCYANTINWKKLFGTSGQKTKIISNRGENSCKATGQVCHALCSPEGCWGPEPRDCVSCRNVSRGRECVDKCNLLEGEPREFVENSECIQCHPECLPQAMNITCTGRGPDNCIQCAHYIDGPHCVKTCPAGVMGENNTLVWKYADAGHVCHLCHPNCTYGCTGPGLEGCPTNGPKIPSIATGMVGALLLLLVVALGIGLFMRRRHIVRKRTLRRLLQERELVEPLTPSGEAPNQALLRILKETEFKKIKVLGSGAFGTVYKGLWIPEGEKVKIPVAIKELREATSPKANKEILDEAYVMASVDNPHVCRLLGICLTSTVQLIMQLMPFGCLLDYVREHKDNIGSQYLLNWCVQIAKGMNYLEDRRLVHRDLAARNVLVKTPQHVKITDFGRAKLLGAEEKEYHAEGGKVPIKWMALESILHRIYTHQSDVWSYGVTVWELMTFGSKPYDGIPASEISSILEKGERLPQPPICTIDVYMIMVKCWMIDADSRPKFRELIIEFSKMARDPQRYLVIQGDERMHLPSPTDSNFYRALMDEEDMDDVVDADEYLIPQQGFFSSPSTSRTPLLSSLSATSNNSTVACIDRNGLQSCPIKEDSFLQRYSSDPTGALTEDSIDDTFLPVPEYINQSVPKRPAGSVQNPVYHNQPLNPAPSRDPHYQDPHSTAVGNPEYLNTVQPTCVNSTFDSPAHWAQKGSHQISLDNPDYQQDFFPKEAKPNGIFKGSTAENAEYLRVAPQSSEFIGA

NIH3T3 cells = test: Toxicity test on NIH3T3 cells by MTT assay; format: cell-based; conditions: 72 hours
Experimental: (§1) The steps of the MTT assay were carried out using methods well known to those skilled in the art, and all the reagents used in the methods are commercially available.
(§2) After the first wash, another 1.5 mL of trypsin/EDTA was added to digest the adherent cells until the cells detached. Then 3.5 mL of the culture medium was added to terminate the digestion. The digested cell suspension was transferred to a 15 mL centrifuge tube and centrifuged at 1300 rpm for 3 minutes. The supernatant was discarded and the cells were resuspended in fresh medium. The cells were then counted and diluted to the following concentrations: 27,800 cells per milliliter of H1975 cells, 33,300 cells per milliliter of A431 cells and NIH3T3 cells (purchased from the Cell Bank of the Type Culture Collection Committee, Chinese Academy of Sciences).
(§3) After the drug was added, the cells were incubated in an incubator for 72 hours. 10 μL of 5 mg/ml MTT (Sigma, M5655) solution was added to each well. The 96-well plate was then incubated in a 37° C. and 5% CO2 incubator for 4 h.
(§4) The plate was then centrifuged at 2000 rpm for 5 min. After the supernatant was removed, 150 μl of DMSO was added to each well and the plate was shaken in a shaker until all crystal violet was dissolved.

wild-type EGFR kinase = wild-type EGFR kinase (Homo sapiens (Human), UniProt P00533); conditions: read-out: EGFR WT (IC50/μM); z'-lyte assay, 10 μM ATP
Sequence of wild-type EGFR kinase (P00533 25-1210): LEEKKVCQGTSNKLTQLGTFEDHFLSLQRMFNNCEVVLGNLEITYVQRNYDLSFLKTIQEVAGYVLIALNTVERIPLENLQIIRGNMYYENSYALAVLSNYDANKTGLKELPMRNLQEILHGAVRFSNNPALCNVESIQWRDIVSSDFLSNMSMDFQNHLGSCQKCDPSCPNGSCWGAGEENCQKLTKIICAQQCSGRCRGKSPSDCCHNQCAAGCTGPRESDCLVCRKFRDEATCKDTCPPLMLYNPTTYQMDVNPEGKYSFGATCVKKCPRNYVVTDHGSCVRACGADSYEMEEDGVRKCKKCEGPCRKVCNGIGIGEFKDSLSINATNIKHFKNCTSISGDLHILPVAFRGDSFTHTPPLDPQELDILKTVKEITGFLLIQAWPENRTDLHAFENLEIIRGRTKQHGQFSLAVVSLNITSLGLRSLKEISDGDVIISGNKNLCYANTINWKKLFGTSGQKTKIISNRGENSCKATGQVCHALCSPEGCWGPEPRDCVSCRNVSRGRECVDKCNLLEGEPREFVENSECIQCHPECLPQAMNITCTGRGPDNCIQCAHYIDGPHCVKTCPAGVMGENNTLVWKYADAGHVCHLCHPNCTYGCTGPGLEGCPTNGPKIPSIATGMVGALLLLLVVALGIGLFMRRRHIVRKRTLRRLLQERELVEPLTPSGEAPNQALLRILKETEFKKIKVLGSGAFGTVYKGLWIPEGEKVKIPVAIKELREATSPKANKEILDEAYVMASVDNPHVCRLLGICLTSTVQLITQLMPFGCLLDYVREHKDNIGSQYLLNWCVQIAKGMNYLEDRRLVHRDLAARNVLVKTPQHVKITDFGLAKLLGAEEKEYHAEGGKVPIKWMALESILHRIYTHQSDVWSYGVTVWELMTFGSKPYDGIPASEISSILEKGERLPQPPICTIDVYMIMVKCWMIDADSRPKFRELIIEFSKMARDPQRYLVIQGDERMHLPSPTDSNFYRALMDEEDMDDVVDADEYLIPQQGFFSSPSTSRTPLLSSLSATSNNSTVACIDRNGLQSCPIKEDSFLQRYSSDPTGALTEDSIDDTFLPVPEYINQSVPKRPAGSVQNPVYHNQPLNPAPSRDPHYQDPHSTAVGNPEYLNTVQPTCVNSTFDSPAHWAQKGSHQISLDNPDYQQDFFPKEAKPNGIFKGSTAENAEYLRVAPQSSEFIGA
Experimental: All reagents used in the following z′-lyte assay were purchased from Invitrogen.
The working concentrations of each component in 10 μL wild-type EGFR kinase reaction system were: 10 μM ATP, 0.8 ng/μL wild-type EGFR kinase, 2 μM Tyr04 substrate (Invitrogen, PV3193). The concentration of DMSO after addition of the compound to be tested was 2 vol %.
10 mM drug stock solution was dissolved at room temperature and gradiently diluted to a final concentration of 4-0.002 μM with 8 vol % DMSO solution. […] Then 2.5 μl of ATP was added to initiate the reaction. Wherein, ATP was replaced by the reaction buffer in well C1, no drug was added to well C2, and the phosphorylated substrate was added to well C3 according to the instructions. The mixture was allowed to react at 25° C. in a shaker in dark for 60 min. 5 μL of Development Reagent B (Invitrogen, diluted with TR-FRET dilution buffer) was added and allowed to react at room temperature in the shaker for 60 minutes.
The inhibition rate was calculated according to the following method (refer to the instructions of Invitrogen, PV3193):
1. ER=Coumarin Emission (450 nm)/Fluorescein Emission (520 nm)
The half-inhibitory concentration IC50 was obtained through fitting calculation by using XLFIT 5.0 software (IDBS, UK).

H1975 cells = test: Cell growth inhibition by MTT assay, H1975 cells; format: cell-based; conditions: for IC50: MTT assay, 72 hours; for Selective inhibitory activity against cell growth [IC50 (A431 cell)/IC50 (H1975 cell)]: ratio of MTT IC50 values;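 for all read-outs here: MTT read-out in 96-well plates after 72 h compound exposure of H1975 and A431 cells, with selectivity given as the A431 IC50 divided by the H1975 IC50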
Experimental: as §1, §2, §3, §4

A431 cells = test: Cell growth inhibition by MTT assay, A431 cells; format: cell-based; conditions: 72 hours
Experimental: as §1, §2, §3, §4

[3] = biological target: EGFR phosphorylation in A431 (EGFR wild-type) cells (Homo sapiens (Human), UniProt P00533); test: Inhibition of EGFR phosphorylation in A431 cells (ELISA); format: cell-based; conditions: 1 h compound treatment, EGF stimulation, read-out: A431 cell (IC50/μM)
Sequence of EGFR phosphorylation in A431 (EGFR wild-type) cells (P00533 25-1210): as above
Experimental: (§5) In the following methods, the reagents used, the preparation methods of solutions, the cell treatment and the preparation steps of the lysis solution, as well as the ELISA assay steps, were carried out according to the instructions of R&D DYC3570, R&D DYC1095E and R&D DYC1095BE.
I. Reagents and Solutions
(§6) Cell lysis solution: Cell lysis buffer+10 μg/mL Aprotinin (Sigma)+10 μg/mL Leupeptin (Sigma), prepared on site.
(§7) Wash buffer: PBS buffer containing 0.05% (v/v) Tween-20.
(§8) Blocking solution: PBS buffer containing 1% (w/v) BSA.
3.1 A431 Cell Treatment and Testing Procedures
(1) A431 cells (purchased from the Cell Bank of the Type Culture Collection Committee, Chinese Academy of Sciences) were seeded in 96-well plates at a density of 1×10^4/well in 90 μl of DMEM medium containing 10% FBS and cultured at 37° C. in 5% CO2 overnight.
(2) The A431 cell culture medium was replaced with 90 μl of serum-free DMEM medium and the plate was cultured overnight.
(3) The compound to be tested was diluted according to the drug dilution method in MTT assay. 10 μL of the diluted compound or diluted DMSO was added to the corresponding wells of the cell culture plate, and the final concentration of DMSO was 0.5%. The plate was cultured at 37° C. in 5% CO2 for 1 hour. […] The cells without EGF and drug treatment were used as cell control, and the cells treated with EGF without drugs were used as EGF control.
(4) The medium was removed and then 100 μL of the cell lysis solution was added. The plate was sealed and placed in a refrigerator at −80° C. overnight.
The assay was conducted according to the instructions given in R&D DYC3570E.
(1) R&D capture antibody (DYC3570E) was diluted with PBS in the proportion of 1:180.
(§9) (2) The plate was washed 3 times with 360 μL of the wash buffer.
(3) 200 μL of the blocking solution was added and the plate was incubated at 25° C. with shaking for 2 hours.
(4) The plate was washed 3 times with 360 μL of wash buffer.
(§10) (5) 40 μL of cell lysis buffer and 60 μL of cell lysis solution were added and the plate was incubated at 25° C. with shaking for 2 hours.
(§11) (6) The plate was washed 3 times with 360 μL of the wash buffer.
(§12) (7) The detection antibody was diluted with the detection antibody diluent in the proportion specified in the instructions of the kit. 100 μL of the diluted antibody was added to each well and the plate was incubated at 25° C. with shaking in dark for 1 h.
(8) The plate was washed 3 times with 360 μL of the wash buffer.
(9) A reagent and B reagent in TMB substrate (R&D DY999) were mixed in 1:1. 100 μL of the mixture was added to each well and incubated in dark at 25° C. with shaking for 20 min.
(§13) (10) 50 μL of 2N H2SO4 was added to each well.
(11) The plate was read with a microplate reader (Thermo Multiskan K3). OD 450 values and OD570 values of the cell control, blank control, and drug treatment wells were measured. ODEGF, ODdrug and ODcell were obtained by subtracting the corresponding OD570 value from the OD 450 value of the same well.
3.3 Data Analysis Inhibition rate (%)=100%×(ODEGF−ODdrug)/(ODEGF−ODcell)

[4] = biological target: EGFR phosphorylation in H1975 (EGFR T790M mutant) cells (Homo sapiens (Human), UniProt P00533, L858R/T790M); test: Inhibition of EGFR phosphorylation in H1975 cells (ELISA); format: cell-based; conditions: for IC50: ELISA of EGFR phosphorylation, 1 h compound treatment, read-out: H1975 cell (IC50/μM); for Selective inhibitory activity against targets at the cell level [IC50 (A431 cell)/IC50 (H1975 cell)]: ratio of ELISA IC50 values;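 for all read-outs here: Phospho-EGFR in cell lysates measured by capture-antibody ELISA with TMB substrate after compound exposure, cells given DMSO alone (0.5% final) serving as control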
Sequence of EGFR phosphorylation in H1975 (EGFR T790M mutant) cells (P00533 25-1210 T790M/L858R): as the sequence (P00533 25-1210 T790M/L858R) above
Experimental: as §5, §6, §7, §8
(1) H1975 cells (purchased from the Cell Bank of the Type Culture Collection Committee, Chinese Academy of Sciences) were seeded into 96-well plates at a density of 1×10^4/well, each cell containing 90 μl of RPMI1640 medium with 10% (V/V) FBS, and cultured overnight at 37° C. in 5% (v/v) CO2.
(2) The compounds to be tested were diluted in accordance with the drug dilution method in the MTT assay. 10 μL of the diluted compound or diluted DMSO was added to the corresponding wells of the cell culture plate, and the final concentration of DMSO was 0.5% (V/V). The plate was cultured at 37° C. in 5% (v/v) CO2 for 1 h. The cell culture system treated with DMSO alone was used as cell control.
(3) The medium was removed and then 100 μL of cell lysis solution was added. The plate was sealed and placed in a refrigerator at −80° C. overnight. The cell lysis buffer was used as blank control.
The assay was conducted according to the instructions given in R&D DYC1095E or R&D DYC1095BE.
(1) R&D capture antibody ((DYC1095BE or DYC1095E)) was diluted with PBS in the proportion of 1:180.
as §9
(3) 300 μL of the blocking solution was added and the plate was incubated at 25° C. with shaking for 2 hours.
(4) The plate was washed 3 times with 360 μL of the wash buffer.
as §10, §11, §12
(8) The plate was washed 3 times with 360 μL of wash buffer.
(9) A reagent and B reagent in the TMB substrate (R&D DY999) were mixed in 1:1. 100 μL of the mixture was added to each well and incubated in dark at 25° C. with shaking for 20 min.
as §13
(11) The plate was read with a microplate reader (Thermo Multiskan K3). OD 450 values and OD570 values of the cell control, blank control, and drug treatment wells were measured. ODcell, ODblank and ODdrug treatment were obtained by subtracting the corresponding OD570 value from the OD 450 value of the same well.
2.3 Data Analysis Inhibition rate (%)=100%×(ODcell−ODdrug treatment)/(ODcell−ODblank)

[5] = tested on: T790M mutant cell line H1975; conditions: background statement; cited from earlier work

Row | SMILES | stability [1] | Selective inhibitory activity against enzymes [IC50 (EGFR WT)/IC50 (T790M/L858R)] [2] | IC50 [2] [µM] | IC50 (NIH3T3 cells) [µM] | IC50 (wild-type EGFR kinase) [µM] | IC50 (H1975 cells) [µM] | Selective inhibitory activity against cell growth [IC50 (A431 cell)/IC50 (H1975 cell)] (H1975 cells) | IC50 (A431 cells) [µM] | IC50 [3] [µM] | IC50 [4] [µM] | Selective inhibitory activity against targets at the cell level [IC50 (A431 cell)/IC50 (H1975 cell)] [4] | activity in the T790M mutant cell line H1975 [5]
1 | C=CC(=O)Nc1cccc(-c2ccc3cnc(Nc4ccc(N(C)CCN(C)C)cc4OC)nn23)c1 [CC0922] | very unstable |  |  |  |  |  |  |  |  |  |  | 
2 | C=CC(=O)Nc1cc(Nc2ncc3ccc(-c4cnn(C)c4)n3n2)c(OC)cc1OCCN(C)C [Compound J-3, N-(2-(2-(dimethylamino)ethoxyl)-4-methoxy-5-(7-(1-methyl-1H-pyrazol-4-yl)pyrrolo[1,2-f][1,2,4]triazin-2-ylamino)phenyl)acrylamide] |  | 10 | 0.001 | 3.91 | 0.01 | 0.008 | 21 | 0.168 | 0.093 | 0.001 | 93 | 
3 | C=CC(=O)Nc1cc(Nc2ncc3ccc(-c4cnn(C)c4)n3n2)c(OC)cc1N1CCN(C)CC1 [Compound J-4, N-(4-methoxy-5-(7-(1-methyl-1H-pyrazol-4-yl)pyrrolo[1,2-f][1,2,4]triazin-2-ylamino)-2-(4-methyl-1-yl)phenyl)acrylamide] |  | 17.5 | 0.002 | 3.65 | 0.035 | 0.014 | 32.9 | 0.461 | 1.8 | 0.004 | 450 | 
4 | C=CC(=O)Nc1cc(Nc2ncc3ccc(C4=CCCCC4)n3n2)c(OC)cc1N(C)CCN(C)C [Compound J-5, N-(5(7-cyclohexenyl-pyrrolo[1,2-f][1,2,4]triazin-2-ylamino)-2-((2-(dimethylamino)ethyl)(methyl)amino)-4-methoxyphenyl)acrylamide] |  | 3 | 0.003 | 2.82 | 0.009 | 0.023 | 15.4 | 0.354 | 0.208 | 0.106 | 2 | 
5 | C=CC(=O)Nc1cc(Nc2ncc3ccc(-c4cccnc4)n3n2)c(OC)cc1N(C)CCN(C)C [Compound J-6, N-(2-((2-(dimethylamino)ethyl)(methyl)amino)-4-methoxy-5-(7-(pyridin-3-yl)pyrrolo[1,2-f][1,2,4]triazin-2-ylamino)phenyl)acrylamide] |  | 5.42 | 0.0024 | 8.21 | 0.013 | 0.028 | 15.3 | 0.427 | 0.309 | 0.027 | 11.4 | 
6 | C=CC(=O)Nc1cc(Nc2ncc3ccc(C)n3n2)c(OC)cc1N(C)CCN(C)C [Compound J-9, N-(2-((2-(dimethylamino)ethyl)(methyl)amino)-4-methoxy-5-(7-methylpyrrolo[1,2-f][1,2,4]triazin-2-ylamino)phenyl)acrylamide] |  | 6.6 | 0.016 | > 10 | 0.105 | 0.125 | 13.2 | 1.65 | 0.92 | 0.186 | 5 | 
7 | C=CC(=O)Nc1cc(Nc2ncc3ccc(-c4ccccc4)n3n2)c(OC)cc1N(C)CCN(C)C [Compound J-11, N-(2-((2-(dimethylamino)ethyl)(methyl)amino)-4-methoxy-5-(7-phenylpyrrolo[1,2-f][1,2,4]triazin-2-ylamino)phenyl)acrylamide] |  | 4.2 | 0.0024 | 5.57 | 0.01 | 0.026 | 23.9 | 0.621 | 0.237 | 0.063 | 3.8 | 
8 | C=CC(=O)Nc1cc(Nc2ncc3ccc(-c4ccn(C)c4)n3n2)c(OC)cc1N(C)CCN(C)C [Compound J-12, N-(2-((2-(dimethylamino)ethyl)(methyl)amino)-4-methoxy-5-(7-(1-methyl-1H-pyrrol-3-yl)pyrrolo[1,2-f][1,2,4]triazin-2-ylamino)phenyl)acrylamide] |  | 4.2 | 0.0019 | 4.73 | 0.008 | 0.009 | 36.9 | 0.332 | 0.023 | 0.015 | 1.5 | 
9 | C=CC(=O)Nc1cc(Nc2ncc3ccc(-c4cnc5ccccc5c4)n3n2)c(OC)cc1N1CCC(N(C)C)CC1 [Compound J-13, N-(2-(4-(dimethylamino)piperidin-1-yl)-4-methoxy-5-(7-(quinolin-3-yl)pyrrolo[1,2-f][1,2,4]triazin-2-ylamino)phenyl)acrylamide] |  | 4.2 | 0.005 | 2.97 | 0.021 | 0.013 | 28.4 | 0.369 | 0.301 | 0.043 | 7 | 
10 | C#Cc1cccc(Nc2ncnc3cc(OCCOC)c(OCCOC)cc23)c1 [erlotinib] |  |  |  |  |  |  |  |  |  |  |  | greater than 3 uM
11 | COc1cc2ncnc(Nc3ccc(F)c(Cl)c3)c2cc1OCCCN1CCOCC1 [gefitinib] |  |  |  |  |  |  |  |  |  |  |  | greater than 3 uM
